These are literature values, as cited in patent US20130280331A1, “Depot Compositions with multiple drug release rate controls and uses thereof” (Durect Corporation, priority 2001, published 2013).

SMILES strings stand for the structures.

As for `CC(=O)OCC(COC(C)=O)OC(C)=O` [triacetin], the “reported solubility in water” value was 7.17 grams in 100 ml of water.
